Consider four molecules from patent EP4309652A1, “COMPOSITION FOR USE IN THE PREVENTION AND/OR TREATMENT OF DISEASES MEDIATED BY TLR4, IL1R, COX1/2 AND/OR RBP4” (Servizo Galego de Saúde (SERGAS), priority 2022, dated 2024).

Entries after “also recorded” stand apart in the source; their conditions may differ.

The test system of assay [1] is ATDC5 cells. Kind of assay: Nitrite assay (Griess reaction), NO production. The class given is cell-based, murine. Conditions: LPS (100 ng/ml) or IL1B (0,5 ng/ml), 24h. As to the method: ATDC-5 cells were seeded in 12-well plates. Cells were seeded in a monolayer. After adhesion and incubation overnight in serum-free conditions (starvation), ATDC5 cells were stimulated for 24 h with LPS [100 ng/ml] or IL-1β [0,5 ng/ml] in the presence or absence of the compounds of the invention [10-100 µM]. As described above, 1×10^5 ATDC5 cells were seeded and treated for 24 h. Nitrite accumulation was determined in the culture medium using the Griess reaction. As previously described, after diazonium salt was dissolved, absorbance was measured at 550 nm in a microplate reader.
On the technique in general: Griess reagent forms a coloured azo dye with nitrite.

Assay [2] concerns IL1R. The assay can be described thus: RT-PCR, IL1β-induced mRNA expression of LCN2, IL6 and NOS2 in ATDC5 cells. The following applies: IL1β (0,5 ng/ml), 24h. Format: cell-based, murine. The procedure:
(§1) ATDC-5 cells were seeded in 12-well plates. Cells were seeded in a monolayer. After adhesion and incubation overnight in serum-free conditions (starvation), ATDC5 cells were stimulated for 24 h with LPS [100 ng/ml] or IL-1β [0,5 ng/ml] in the presence or absence of the compounds of the invention [10-100 µM].
(§2) RNA was extracted using E.Z.N.A solation reagent (Omega) according to manufacturer's protocol. Relative quantitation was performed using the ΔΔC Comparative Method and the MxPro software (Stratagene, CA, USA) as the ratio of each gene to the expression of the housekeeping gene. Data are shown as mean ± S.E.M (error bars) of at least three independent experiments and represented as fold-change vs. controls.

The test system of assay [3] is TLR4. Kind of assay: RT-PCR, LPS-induced mRNA expression of LCN2, IL6 and NOS2 in ATDC5 cells. Format: cell-based, murine. The following applies: LPS (100 ng/ml), 24h. As to the method: as §1, §2
Assay [4] has as its system TLR4. Kind of assay: Western blot, NOS2 protein expression in LPS-stimulated ATDC5 cells. Format: cell-based, murine. Conditions: LPS (100 ng/ml), 24h. The procedure: as §1
(§3) Whole-cell protein extraction was performed using lysis buffer (RIPA Buffer). Immunoblots were incubated with the appropriated antibodies [INOS (rabbit polyclonal antibody) diluted 1:1000 (Thermo Fisher Scientific, MA, USA), IG (anti-rabbit antibody) diluted 1:5000 (Jackson ImmunoResearch Laboratories Inc., USA), b-actin (mouse polyclonal antibody) (Thermo Fisher Scientific, MA, USA) diluted 1:6500 and IG (anti-mouse antibody) diluted 1:10000] (Jackson ImmunoResearch Laboratories Inc., USA).
(§4) Then, all immunoblots were visualized using an Immobilon Western kit (Millipore, MA, USA). Blots densitometries were generated using a ChemiDoc MP Imaging System and analysed using Image J software (National Institutes of Health, Bethesda, MD, USA).

Assay [5] deals with RBP4. Kind of assay: RBP4 mRNA expression in chondrocytes. The following applies: basal or inflammatory conditions (LPS or IL1β), 50 and 100 µM of PJ. Format: cell-based. As to the method:
as §2

Assay [6] deals with IL1R. The assay can be described thus: Western blot, NOS2 protein expression in IL1β-stimulated ATDC5 cells. The class given is cell-based, murine. Conditions: IL1β (0,5 ng/ml), 24h. As to the method: as §1, §3, §4
In general terms: In western blotting, separated proteins are transferred to a membrane and probed.

Assay [7] concerns primary human osteoarthritis chondrocytes and osteoblasts. Kind of assay: RT-PCR, inflammatory and catabolic marker genes in TLR4- and IL1R-activated primary cells. The class given is cell-based. Conditions: 50 µM, 24h, LPS (100 ng/ml) or IL1β (0,5 ng/ml). The procedure:
as §2
According to the results obtained in ATDC5 cells, we selected the concentration 50 µM and co-treated the primary cells with inflammatory stimuli for 24h at the same concentrations [LPS (100 ng/ml), and IL1β (0,5 ng/ml)].

Regarding `COc1ccc2c(c1)c(CC(=O)O)c(C)n2C(=O)c1ccc(Cl)cc1` [Indomethacin, reference compound], the “NO production induced by LPS and IL1β” value in assay [1] was “did not suppress; also recorded: did not significantly inhibit”.
With `CC(=O)OC(/C=C\C1CC=CC(=O)O1)CC(OC(C)=O)C(C)OC(C)=O` (stereo not drawn) [Hyptolide], in assay [2], the “concentration of inhibitory activity on IL1β-induced mRNA expression” value (“concentration of inhibitory activity” for short) was found to be 100 µM.
Consider `CC(=O)OC(/C=C\C1OC(=O)C=CC1O)CC(OC(C)=O)C(C)OC(C)=O` (stereo not drawn) [Pectinolide J], for which, in assay [3], the “LPS-induced mRNA expression of LCN2, IL6 and NOS2” value was “highest anti-inflammatory activity”. In assay [2], the “IL1β-induced expression of LCN2, IL6 and NOS2” value is “maximum inhibitory activity”; the “concentration of inhibitory activity” value amounted to 10 µM. In assay [1], the “NO production induced by LPS and IL1β” value is recorded as “maximum inhibitory activity”; the “concentration of maximum inhibitory activity on induced NO production” value was 10 to 25 µM. Moreover, the “NOS2 protein expression (250 kDa dimer), LPS-induced” value in assay [4] is given as “highest reduction of NOS2 expression”. Also, the “RBP4 mRNA expression” value in assay [5] is on record as “downregulates”. Also, the “NOS2 protein expression (250 kDa dimer), IL1β-induced” value in assay [6] was “highest reduction of NOS2 expression”. Moreover, in assay [7], the “inflammatory and catabolic marker genes (LCN2, NOS2, IL6, MMP3) induced by the inflammatory stimuli” value is given as “maximum anti-inflammatory activity”.
As to `CC(=O)OC(/C=C\C1OC(=O)C=CC1OC(C)=O)CC(OC(C)=O)C(C)OC(C)=O` (stereo not drawn) [Pectinolide E], in assay [2], the “concentration of inhibitory activity” value is 50 µM.
